Measured values as given in ChEMBL document CHEMBL3351638, “Discovery of 6-[5-(4-fluorophenyl)-3-methyl-pyrazol-4-yl]-benzoxazin-3-one derivatives as novel selective nonsteroidal mineralocorticoid receptor antagonists” (Bioorg Med Chem, 2014).

Columns and labels:
Progesterone receptor = target: T1, Progesterone receptor (Homo sapiens, UniProt P06401); assay: Displacement of [[3H]-Progesterone from progesterone receptor (unknown origin) expressed in 293 cells after 16 hrs by scintillation counting; format: cell-based
T1 sequence (P06401 whole entry): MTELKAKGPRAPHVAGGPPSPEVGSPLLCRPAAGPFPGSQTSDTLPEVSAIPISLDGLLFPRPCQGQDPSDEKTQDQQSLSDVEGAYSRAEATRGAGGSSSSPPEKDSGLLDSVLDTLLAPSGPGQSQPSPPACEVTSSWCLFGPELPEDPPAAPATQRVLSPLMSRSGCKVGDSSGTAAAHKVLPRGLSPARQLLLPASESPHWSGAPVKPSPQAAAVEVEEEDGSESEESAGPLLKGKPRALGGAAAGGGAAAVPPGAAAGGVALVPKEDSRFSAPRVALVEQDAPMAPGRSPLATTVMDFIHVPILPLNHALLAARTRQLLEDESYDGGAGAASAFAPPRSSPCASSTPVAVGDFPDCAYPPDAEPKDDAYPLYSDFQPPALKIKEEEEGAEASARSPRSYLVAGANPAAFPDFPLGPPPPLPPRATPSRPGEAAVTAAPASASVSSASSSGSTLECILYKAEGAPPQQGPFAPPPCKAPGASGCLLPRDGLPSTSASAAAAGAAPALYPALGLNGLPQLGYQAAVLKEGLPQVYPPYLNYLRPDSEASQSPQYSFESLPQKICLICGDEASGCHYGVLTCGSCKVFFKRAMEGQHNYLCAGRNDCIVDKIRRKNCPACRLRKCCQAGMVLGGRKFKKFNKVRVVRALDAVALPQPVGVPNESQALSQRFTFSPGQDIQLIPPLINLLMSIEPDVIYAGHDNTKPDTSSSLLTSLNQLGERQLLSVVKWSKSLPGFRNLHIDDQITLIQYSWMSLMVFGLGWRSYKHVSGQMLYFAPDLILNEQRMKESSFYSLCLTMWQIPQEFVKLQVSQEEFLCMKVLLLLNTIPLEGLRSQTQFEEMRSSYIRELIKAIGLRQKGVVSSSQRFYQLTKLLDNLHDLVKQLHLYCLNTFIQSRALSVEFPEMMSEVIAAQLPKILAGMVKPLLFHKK

Androgen receptor = target: T2, Androgen receptor (Homo sapiens, UniProt P10275); assay: biochemical
T2 sequence (P10275 whole entry): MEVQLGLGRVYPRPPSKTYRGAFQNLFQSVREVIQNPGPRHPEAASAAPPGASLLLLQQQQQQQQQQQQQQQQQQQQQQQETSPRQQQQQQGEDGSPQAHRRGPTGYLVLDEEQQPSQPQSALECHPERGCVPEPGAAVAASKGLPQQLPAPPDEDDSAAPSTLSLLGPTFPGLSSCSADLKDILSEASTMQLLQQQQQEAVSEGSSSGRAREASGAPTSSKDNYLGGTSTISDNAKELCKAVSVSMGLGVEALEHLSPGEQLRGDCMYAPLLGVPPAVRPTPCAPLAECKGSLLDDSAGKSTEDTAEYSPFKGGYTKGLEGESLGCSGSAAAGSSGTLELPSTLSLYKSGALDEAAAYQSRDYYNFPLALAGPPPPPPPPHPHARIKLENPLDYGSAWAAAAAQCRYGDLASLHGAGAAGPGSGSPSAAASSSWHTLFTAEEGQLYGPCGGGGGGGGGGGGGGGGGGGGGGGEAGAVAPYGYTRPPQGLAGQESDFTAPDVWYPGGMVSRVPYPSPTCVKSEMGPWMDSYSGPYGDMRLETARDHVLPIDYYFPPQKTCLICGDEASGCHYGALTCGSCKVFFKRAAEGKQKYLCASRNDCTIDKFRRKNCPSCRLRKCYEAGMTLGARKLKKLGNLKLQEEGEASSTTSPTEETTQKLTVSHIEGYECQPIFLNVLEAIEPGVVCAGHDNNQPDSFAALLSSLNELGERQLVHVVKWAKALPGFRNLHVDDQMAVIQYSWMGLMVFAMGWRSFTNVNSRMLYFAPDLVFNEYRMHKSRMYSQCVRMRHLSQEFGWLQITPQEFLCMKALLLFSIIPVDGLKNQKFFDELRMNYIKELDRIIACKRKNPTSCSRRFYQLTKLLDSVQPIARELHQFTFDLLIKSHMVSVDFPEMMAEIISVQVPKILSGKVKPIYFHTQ
Description: Displacement of [3H]testosterone from androgen receptor (unknown origin) expressed in 293 cells after 16 hrs by scintillation counting

[1] = target: T3, Mineralocorticoid receptor (Homo sapiens, UniProt P08235); assay: biochemical
T3 sequence (P08235 whole entry): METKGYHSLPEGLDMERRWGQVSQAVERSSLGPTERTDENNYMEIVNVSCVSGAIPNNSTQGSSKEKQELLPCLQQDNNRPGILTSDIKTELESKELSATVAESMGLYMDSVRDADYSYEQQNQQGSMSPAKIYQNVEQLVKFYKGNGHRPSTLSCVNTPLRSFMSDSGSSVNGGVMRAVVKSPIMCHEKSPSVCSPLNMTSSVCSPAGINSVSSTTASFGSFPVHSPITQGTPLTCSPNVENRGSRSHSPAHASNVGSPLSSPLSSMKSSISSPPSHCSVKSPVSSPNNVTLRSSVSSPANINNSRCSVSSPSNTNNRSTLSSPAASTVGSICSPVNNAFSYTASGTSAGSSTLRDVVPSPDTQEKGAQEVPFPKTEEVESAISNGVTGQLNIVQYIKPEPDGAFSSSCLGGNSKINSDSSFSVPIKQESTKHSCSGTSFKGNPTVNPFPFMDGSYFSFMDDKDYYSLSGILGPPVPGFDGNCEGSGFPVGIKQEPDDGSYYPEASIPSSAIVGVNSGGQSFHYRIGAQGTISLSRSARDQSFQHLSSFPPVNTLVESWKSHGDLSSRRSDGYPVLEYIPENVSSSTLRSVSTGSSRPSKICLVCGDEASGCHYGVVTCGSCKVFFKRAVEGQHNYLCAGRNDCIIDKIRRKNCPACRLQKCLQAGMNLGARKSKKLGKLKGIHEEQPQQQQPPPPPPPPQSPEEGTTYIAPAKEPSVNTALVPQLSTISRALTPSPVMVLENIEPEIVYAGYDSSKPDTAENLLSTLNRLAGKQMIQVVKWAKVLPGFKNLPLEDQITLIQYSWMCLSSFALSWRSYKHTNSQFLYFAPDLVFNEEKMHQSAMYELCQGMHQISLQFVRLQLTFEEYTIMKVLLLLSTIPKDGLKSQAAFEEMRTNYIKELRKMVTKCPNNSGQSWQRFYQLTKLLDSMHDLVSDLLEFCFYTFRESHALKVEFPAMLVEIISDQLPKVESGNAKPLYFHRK
Description: Displacement of [3H]aldosterone from human mineralocorticoid receptor expressed in 293 cells after 16 hrs by scintillation counting

Glucocorticoid receptor = Glucocorticoid receptor (Homo sapiens, UniProt P04150); assay: biochemical
Description: Displacement of [3H]-Dexamethasone from glucocorticoid receptor (unknown origin) expressed in 293 cells after 16 hrs by scintillation counting

[2] = target: T3, Mineralocorticoid receptor
Description: Antagonist activity at human mineralocorticoid receptor expressed in COS1 cells after 1 day by luciferase reporter gene assay

[3] = Lipophilicity, log D of the compound at pH 7.4 by HPLC analysis; format: physicochemical; conditions: buffer
[4] = Metabolic stability in rat hepatic microsomes at 1 umol/L pre-incubated fro 5 mins at 37 degC before addition of NADPH-generating system by UV detection based HPLC method; format: ADME; conditions: liver microsomes, read-out: CLH
Rattus norvegicus [5] = assay: Toxicity in DOCA-salt hypertensive Wistar rat model assessed as change in heart rate at 100 mg/kg, po qd for 18 days measured 24 hrs post 7th and 14th last dose by tail-cuff method; format: organism-based; parameters: dose 100 mg/kg, route oral; conditions: in vivo
Rattus norvegicus [6] = assay: Toxicity in DOCA-salt hypertensive Wistar rat model assessed as change in seminal vesicle weight at 100 mg/kg, po qd for 18 days measured 24 hrs post 7th and 14th last dose […]; format: organism-based; parameters: dose 100 mg/kg, route oral; conditions: in vivo

Chain of Glucocorticoid receptor (P04150 whole entry, looked up): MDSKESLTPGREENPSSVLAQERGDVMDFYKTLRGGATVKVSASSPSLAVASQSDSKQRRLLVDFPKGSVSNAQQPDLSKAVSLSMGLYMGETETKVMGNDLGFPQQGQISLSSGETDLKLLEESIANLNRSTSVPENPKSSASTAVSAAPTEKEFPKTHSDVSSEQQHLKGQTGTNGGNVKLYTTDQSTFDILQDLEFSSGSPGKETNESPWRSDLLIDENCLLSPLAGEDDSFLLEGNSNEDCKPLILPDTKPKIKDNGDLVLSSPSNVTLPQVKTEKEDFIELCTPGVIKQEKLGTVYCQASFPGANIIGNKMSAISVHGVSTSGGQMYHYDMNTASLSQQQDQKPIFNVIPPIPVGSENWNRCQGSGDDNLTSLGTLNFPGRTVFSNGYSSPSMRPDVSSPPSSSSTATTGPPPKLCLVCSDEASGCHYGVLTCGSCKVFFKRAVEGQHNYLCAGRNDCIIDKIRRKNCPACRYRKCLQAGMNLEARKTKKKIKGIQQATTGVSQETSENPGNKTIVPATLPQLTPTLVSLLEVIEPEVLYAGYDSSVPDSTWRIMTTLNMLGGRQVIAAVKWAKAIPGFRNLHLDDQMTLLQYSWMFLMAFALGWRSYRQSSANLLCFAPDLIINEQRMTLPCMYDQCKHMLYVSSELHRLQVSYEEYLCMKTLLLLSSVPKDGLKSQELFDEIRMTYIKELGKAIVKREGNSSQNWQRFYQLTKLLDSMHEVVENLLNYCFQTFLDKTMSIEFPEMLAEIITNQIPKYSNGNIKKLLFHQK

Structure (SMILES)	IC50 (Progesterone receptor) [nM]	IC50 (Androgen receptor) [nM]	IC50 [1] [nM]	IC50 (Glucocorticoid receptor) [nM]	IC50 [2] [nM]	logD [3]	microsomal CLint at 1 µM [4] [µL/min/mg]	Activity (Rattus norvegicus [5])	Activity (Rattus norvegicus [6])
Cc1cc(C2=C(c3ccc(F)cc3)C(=O)NC2C)cc2c1OCC(=O)N2 (stereo unspecified)	> 10000	> 10000							
Cc1[nH]nc(-c2ccc3c(c2)NC(=O)CO3)c1-c1ccc(F)cc1	1600	> 10000	3700	> 10000					
Cc1onc(-c2ccc3c(c2)NC(=O)CO3)c1-c1ccc(F)cc1	> 10000	> 10000	710	> 10000	1400				
Cc1nn(Cc2ccccc2)c(-c2ccc(F)cc2)c1-c1ccc2c(c1)NC(=O)CO2	2000	5600	100	630	64				
Cc1nn(-c2ccccc2)c(-c2ccc(F)cc2)c1-c1ccc2c(c1)NC(=O)CO2			> 10000						
Cc1nn(CCCO)c(-c2ccc(F)cc2)c1-c1ccc2c(c1)NC(=O)CO2	> 10000	> 10000	440	> 10000	680	1.99			
Cc1nn(CCCCO)c(-c2ccc(F)cc2)c1-c1ccc2c(c1)NC(=O)CO2	> 10000	> 10000	75	5400	130	2.16			
Cc1nn(Cc2cccnc2)c(-c2ccc(F)cc2)c1-c1ccc2c(c1)NC(=O)CO2	> 10000	> 10000	36	1700	36	2.22	> 200		
Cc1nn(CCNS(C)(=O)=O)c(-c2ccc(F)cc2)c1-c1ccc2c(c1)NC(=O)CO2	> 10000	> 10000	250	> 10000	2000	1.7			
Cc1nn(CC(F)(F)CCO)c(-c2ccc(F)cc2)c1-c1ccc2c(c1)NC(=O)CO2	> 10000	> 10000	38	1300	540	2.11			
Cc1nn(CCC(C)(F)F)c(-c2ccc(F)cc2)c1-c1ccc2c(c1)NC(=O)CO2	4000	9200	10	370	18				
CC(=O)S[C@@H]1CC2=CC(=O)CC[C@]2(C)[C@H]2CC[C@@]3(C)[C@@H](CC[C@@]34CCC(=O)O4)[C@H]12 [SPIRONOLACTONE]								Non-toxic	Toxic

More lines, main results first:

IC50 (Progesterone receptor) [nM]	IC50 (Androgen receptor) [nM]	IC50 [1] [nM]	IC50 (Glucocorticoid receptor) [nM]	IC50 [2] [nM]	logD [3]	microsomal CLint at 1 µM [4] [µL/min/mg]	Structure (SMILES)	Activity (Rattus norvegicus [5])	Activity (Rattus norvegicus [6])
> 10000	> 10000	290	> 10000	170			Cn1ncc(-c2ccc3c(c2)NC(=O)CO3)c1-c1ccc(F)cc1		
9800	> 10000	110	3200	160	2.51		Cc1nn(C)c(-c2ccc(F)cc2)c1-c1ccc2c(c1)NC(=O)CO2		
9300	> 10000	190	2300	600			Cc1nn(C)c(-c2ccc(F)cc2F)c1-c1ccc2c(c1)NC(=O)CO2		
> 10000	> 10000	150	2500	350			Cc1cc(-c2c(C)nn(C)c2-c2ccc(F)cc2)cc2c1OCC(=O)N2		
> 10000	> 10000	510	5600	950			CCn1nc(C)c(-c2ccc3c(c2)NC(=O)CO3)c1-c1ccc(F)cc1		
5700	> 10000	81	1600	180			CCCn1nc(C)c(-c2ccc3c(c2)NC(=O)CO3)c1-c1ccc(F)cc1		
> 10000	> 10000	2800	> 10000	990	2.45		Cc1nn(Cc2ccccn2)c(-c2ccc(F)cc2)c1-c1ccc2c(c1)NC(=O)CO2		
> 10000	> 10000	520	> 10000	430	2.2		Cc1nn(Cc2ccncc2)c(-c2ccc(F)cc2)c1-c1ccc2c(c1)NC(=O)CO2		
4000	3600	22	1400	45			CCCCn1nc(C)c(-c2ccc3c(c2)NC(=O)CO3)c1-c1ccc(F)cc1		
4300	3700	60	390	49			Cc1nn(CC(C)C)c(-c2ccc(F)cc2)c1-c1ccc2c(c1)NC(=O)CO2		
6800	> 10000	8.4	1100	33			Cc1nn(CCCC(F)(F)F)c(-c2ccc(F)cc2)c1-c1ccc2c(c1)NC(=O)CO2		
		> 10000					CC(=O)NCCn1nc(C)c(-c2ccc3c(c2)NC(=O)CO3)c1-c1ccc(F)cc1		
5700	> 10000	530	4600	490	1.89		Cc1nn(CCC#N)c(-c2ccc(F)cc2)c1-c1ccc2c(c1)NC(=O)CO2		
> 10000	> 10000	95	2500	180	2.34		Cc1nn(CCC(F)(F)CO)c(-c2ccc(F)cc2)c1-c1ccc2c(c1)NC(=O)CO2		
